Reference: patent US10993937B2, “Composition, for preventing or treating dry eye syndrome, containing polyethylene glycol and flavonoid nanocomposite as active ingredient” (INJE UNIVERSITY INDUSTRY-ACADEMIC COOPERATION FOUNDATION, priority 2017, dated 2021)

Legend:
NOD.B10.H2^b mouse [1] = assay: Tear production analysis (phenol red-impregnated cotton threads) in mouse model of dry eye syndrome; type: in vivo; details: for amount of tears: 1% eye drops 5 μL five times a day, mean±SD
Protocol: (§1) Eighty three NOD.B10.H2^b mice (6 weeks old) in total were obtained from the Jackson Laboratory (Bar Harbor, Me., USA) and performed an acclimatization process for 6 to 10 weeks. Mice were kept in a semi-pathogen free (SPF) facility, and feed and water were provided as free feed.
(§2) Six mice were used for histopathological analysis as a baseline. Seventy seven mice were injected subcutaneously four times daily for 10 days with 500 μg/200 μL of scopolamine hydrobromide (Sigma-Aldrich) which is a muscarinic receptor blocker. At this time, the mice were exposed to desiccation stress (DS) for 10 days, including air ventilation by the fan, with an average ambient humidity of 40% or less for 18 hours daily. On day 10 after scopolamine hydrobromide injection and dryness stress exposure, tear production was measured and a photograph of the cornea was taken.
On day 10 of DS, 11 mice were used for histopathological analysis. Sixty six mice were randomly divided into six groups: vehicle (n=11, saline of 5 μL), catechin group (n=11, 1% catechin of 5 μL), CP1 group (n=11, 1% CP1 5 μL), CP5 group (n=11, 1% CP5 5 μL), CP10 group (n=11, 1% CP10 5 μL) and PEG group (n=11, 1% PEG 5 μL). All treatments were performed by injecting five times a day and the amount of tear, corneal disorder and fluorescein scores were measured at baseline, day 10 of DS, and day 3, 5, 7, and 10 after treatment. Hematoxylin and eosin (H&E) and PAS (periodic acid Schiff) staining were performed on the cornea and conjunctiva, respectively. In addition, expression of inflammatory factors associated with immunohistochemical staining in the lacrimal gland was evaluated.
The amount of tears was measured with reference to a previously reported paper (Eye Contact Lens. 2006; 32(6): 272-276). […] The amount of tears was calculated by comparison with a standard curve expressed using a basic solution (1.5 L of 0.9% saline and 5 mL of 5 N sodium hydroxide (NaOH)).

NOD.B10.H2^b mouse [2] = assay: Analysis of corneal irregularities (white ring, corneal disorder score); type: in vivo; details: for corneal disorder score: 5-point scale
Protocol: as §1, §2
(§3) On day 10 of DS, 11 mice were used for histopathological analysis. […] All treatments were performed by injecting five times a day and the amount of tear, corneal disorder and fluorescein scores were measured at baseline, day 10 of DS, and day 3, 5, 7, and 10 after treatment. […] In addition, expression of inflammatory factors associated with immunohistochemical staining in the lacrimal gland was evaluated.
Corneal abnormality was measured with reference to a previously reported paper (Invest Ophthalmol Vis Sci. 2006; 47:2847-2856). […] Corneal smoothness was assessed by grading the irregularity of the corneal epithelial cells reflected in the white ring of the digital image. The reflected ring was divided into quarters and the corneal disorder score was calculated using the 5-point scale based on the number of distorted branches in the reflected ring: 0, no distortion; 1, a quarter of distortion; 2, two-quarters of distortion; 3, three-quarters of distortion; 4, four-quarters of distortion; 5, severe distortion.

NOD.B10.H2^b mouse [3] = assay: Corneal fluorescence staining assay (NEI grading); type: in vivo
Protocol: as §1
as §2, with “At this time, the mice were exposed to desiccation stress (DS) for 10 days, including air ventilation by the fan, with an average ambient humidity of 40% or less for 18 hours daily.” left out
as §3
Fluorescence staining of the cornea was performed with reference to a previously reported paper (CLAO J. 1995; 21: 221-232). […] Punctate staining was assessed using a standard NEI (national eye institute) grading system with scores of 0 to 3 on each of the five areas of the cornea.

NOD.B10.H2^b mouse [4] = assay: Density of conjunctival goblet cells (PAS staining); type: in vivo; details: after treatment; control 12.86±0.76, dryness stress 6.19±0.16
Protocol: as §1, §2
as §3, with “evaluated. […]” for “evaluated.”

TNF-α = assay: Immunohistochemistry of lacrimal gland sections, TNF-α expression; type: in vivo, mouse; details: immunostaining; dryness stress 2.04 times of control
Protocol: as §1, §2
as §3, with “evaluated. […]” for “evaluated.”

IL-1β = assay: Immunohistochemistry of lacrimal gland sections, IL-1β expression; type: in vivo, mouse; details: immunostaining; dryness stress 3.55 times of control
Protocol: as §1, §2
as §3, with “evaluated. […]” for “evaluated.”

IL-6 = assay: Immunohistochemistry of lacrimal gland sections, IL-6 expression; type: in vivo, mouse; details: immunostaining; dryness stress 4.02 times of control
Protocol: as §1, §2
as §3, with “evaluated. […]” for “evaluated.”

IL-17 = assay: Immunohistochemistry of lacrimal gland sections, IL-17 expression; type: in vivo, mouse; details: immunostaining; dryness stress 15.35 times of control
Protocol: as §1, §2
as §3, with “evaluated. […]” for “evaluated.”

ICAM-1 = assay: Immunohistochemistry of lacrimal gland sections, ICAM-1 expression; type: in vivo, mouse; details: versus day 10 of DS and the vehicle-treated group
Protocol: as §1, §2
as §3, with “evaluated. […]” for “evaluated.”

VCAM-1 = assay: Immunohistochemistry of lacrimal gland sections, VCAM-1 expression; type: in vivo, mouse; details: versus day 10 of DS and the vehicle-treated group
Protocol: as §1, §2
as §3, with “evaluated. […]” for “evaluated.”

MMP-9 = assay: Immunohistochemistry of lacrimal gland sections, MMP-9 expression; type: in vivo, mouse; details: compared with the day 10 of DS
Protocol: as §1, §2
as §3, with “evaluated. […]” for “evaluated.”

With catechin the amount of tears (NOD.B10.H2^b mouse [1]; after 3 days of treatment) was 0.08 ± 0.03 µL, the amount of tears (NOD.B10.H2^b mouse [1]; after 5 days of treatment) was 0.13 ± 0.01 µL and the “days of treatment after which tear production recovered to the baseline level” value (NOD.B10.H2^b mouse [1]; baseline 0.16±0.02 μL) was 5 days. The “day after treatment on which white rings on the corneal surface were observed” value (NOD.B10.H2^b mouse [2]; FIG. 2A, microscopic image) was 10 days, the corneal disorder score (NOD.B10.H2^b mouse [2]; day 7 after treatment, vehicle 3.63±0.48) was 2.88±0.48 and the corneal disorder score (NOD.B10.H2^b mouse [2]; day 10 after treatment) was 2.38±0.47. For the same substance, the “corneal fluorescence staining score” value (NOD.B10.H2^b mouse [3]; day 7 after treatment, vehicle 10.00±1.00) was 6.67±0.58, the “corneal fluorescence staining score” value (NOD.B10.H2^b mouse [3]; day 10 after treatment) was 3.67±0.58 and the “number of conjunctival goblet cells” value (NOD.B10.H2^b mouse [4]) was 9.71±1.25 /0.1 mm^2. The “expression of TNF-α in the lacrimal gland” value (TNF-α) was “no statistically significant difference with day 10 of DS”, the “expression of IL-1β in the lacrimal gland” value (IL-1β) was “no statistically significant difference with day 10 of DS” and the “expression of IL-6 in the lacrimal gland” value (IL-6) was “no statistically significant difference with day 10 of DS”. The “IL-17 expression in the lacrimal gland” value (IL-17) was “significantly decreased IL-17 expression”, the “expression of ICAM-1, effect in words” value (ICAM-1) was “did not show statistically significant difference” and the “expression of VCAM-1, effect in words” value (VCAM-1) was “did not show statistically significant difference”. The “expression of MMP-9, effect in words” value (MMP-9) was “significantly decreased the MMP-9 expression but did not recover to the control level”.
